Data taken from PubChem BioAssay (NCI).
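At the GI50, growth is halved. TGI: total growth inhibition.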

Experiments:
Assay in all cases: NCI tumour cell line growth inhibition, 384-well format
[1] = test system: 786-0 renal
[2] = test system: A498 renal
[3] = test system: A549 NSCLC
[4] = test system: CCRF-CEM leukemia
[5] = test system: COLO 205 colon
[6] = test system: DU-145 prostate
[7] = test system: EKVX NSCLC
[8] = test system: HCC-2998 colon
[9] = test system: HL-60(TB) leukemia
[10] = test system: HOP-92 NSCLC
[11] = test system: HS 578T breast
[12] = test system: HT29 colon
[13] = test system: IGROV1 ovarian
[14] = test system: LOX IMVI melanoma
[15] = test system: M14 melanoma
[16] = test system: MALME-3M melanoma
[17] = test system: MCF7 breast
[18] = test system: MDA-MB-231 breast
[19] = test system: MDA-MB-468 breast
[20] = test system: MOLT-4 leukemia
[21] = test system: NCI-H23 lung
[22] = test system: NCI-H322M lung
[23] = test system: NCI-H460 NSCLC
[24] = test system: NCI-H522 lung
[25] = test system: NCI/ADR-RES ovarian
[26] = test system: OVCAR-3 ovarian
[27] = test system: OVCAR-4 ovarian
[28] = test system: OVCAR-5 ovarian
[29] = test system: OVCAR-8 ovarian
[30] = test system: PC-3 prostate
[31] = test system: RPMI-8226 leukemia
[32] = test system: RXF 393 renal
[33] = test system: SF-268 CNS
[34] = test system: SF-295 CNS
[35] = test system: SF-539 CNS
[36] = test system: SK-MEL-2 melanoma
[37] = test system: SK-MEL-28 melanoma
[38] = test system: SK-MEL-5 melanoma
[39] = test system: SN12C renal
[40] = test system: SNB-19 CNS
[41] = test system: SR leukemia
[42] = test system: SW-620 colon
[43] = test system: T-47D breast
[44] = test system: U251 glioblastoma
[45] = test system: UACC-257 melanoma
[46] = test system: UACC-62 melanoma
[47] = test system: UO-31 renal

With `Cc1nc2ccc(-n3ncc(C(=O)c4cc5ccccc5[nH]4)c3N)cc2[nH]1` the GI50 [1] was 8.85 µM, the TGI [1] was 26.7 µM and the GI50 [2] was 12.4 µM. It also gave a TGI [2] of 33.5 µM, a GI50 [3] of 9.61 µM and a TGI [3] of 56.8 µM. It also gave a GI50 [4] of 5.85 µM, a TGI [4] of 18.7 µM and a GI50 [5] of 5.86 µM. The TGI [5] was 30.2 µM, the GI50 [6] was 12.7 µM and the TGI [6] was 41.7 µM. For the same molecule, the GI50 [7] was 15.3 µM, the TGI [7] was 41.1 µM and the GI50 [8] was 13.1 µM. For the same molecule, the TGI [8] was 30.8 µM, the GI50 [9] was 2.97 µM and the TGI [9] was 12.3 µM. For the same molecule, the GI50 [10] was 10.3 µM, the TGI [10] was 30.3 µM and the GI50 [11] was 6.48 µM. The TGI [11] was 26 µM, the GI50 [12] was 5.55 µM and the TGI [12] was 20.5 µM. The GI50 [13] was 6 µM, the TGI [13] was 22.8 µM and the GI50 [14] was 3.27 µM. It also gave a TGI [14] of 8.34 µM, a GI50 [15] of 12.5 µM and a TGI [15] of 28.4 µM. The GI50 [16] was 13.1 µM, the TGI [16] was 33.8 µM and the GI50 [17] was 6.62 µM. It also gave a TGI [17] of 24.8 µM, a GI50 [18] of 4.8 µM and a TGI [18] of 44.9 µM. For the same molecule, the GI50 [19] was 4.15 µM, the TGI [19] was 16.7 µM and the GI50 [20] was 1.93 µM. The TGI [20] was 5 µM, the GI50 [21] was 17.5 µM and the TGI [21] was 36.4 µM. It also gave a GI50 [22] of 16.4 µM, a TGI [22] of 38.9 µM and a GI50 [23] of 2.37 µM. It also gave a TGI [23] of 9.74 µM, a GI50 [24] of 5.33 µM and a TGI [24] of 17.6 µM. For the same molecule, the GI50 [25] was 8.76 µM, the TGI [25] was 23.8 µM and the GI50 [26] was 10.7 µM. It also gave a TGI [26] of 26 µM, a GI50 [27] of 10.4 µM and a TGI [27] of 40.2 µM. For the same molecule, the GI50 [28] was 8.84 µM, the TGI [28] was over 82.6 µM and the GI50 [29] was 6.08 µM. The TGI [29] was 18.8 µM, the GI50 [30] was 7.51 µM and the TGI [30] was 26.6 µM. The GI50 [31] was 6.35 µM, the TGI [31] was 17.3 µM and the GI50 [32] was 2.37 µM. For the same molecule, the TGI [32] was 10.5 µM, the GI50 [33] was 10.6 µM and the TGI [33] was 55.9 µM. For the same molecule, the GI50 [34] was 10.4 µM, the TGI [34] was 26.9 µM and the GI50 [35] was 2.13 µM. For the same molecule, the TGI [35] was 10.5 µM, the GI50 [36] was 28.2 µM and the TGI [36] was 44 µM. The GI50 [37] was 19.5 µM, the TGI [37] was 58.3 µM and the GI50 [38] was 4.2 µM. It also gave a TGI [38] of 17.4 µM, a GI50 [39] of 6.46 µM and a TGI [39] of 45.9 µM. The GI50 [40] was 16 µM, the TGI [40] was over 66.7 µM and the GI50 [41] was 0.668 µM. For the same molecule, the TGI [41] was 1.58 µM, the GI50 [42] was 10.4 µM and the TGI [42] was 51.2 µM. It also gave a GI50 [43] of 6.8 µM, a TGI [43] of 19.3 µM and a GI50 [44] of 6.53 µM. It also gave a TGI [44] of 25.5 µM, a GI50 [45] of 15.1 µM and a TGI [45] of 32.6 µM. It also gave a GI50 [46] of 5.92 µM, a TGI [46] of 18.6 µM and a GI50 [47] of 7.35 µM. It also gave a TGI [47] of 34.5 µM.
